ChEMBL document CHEMBL1201862, “PubChem BioAssay data set” (2004)
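These data come from cells grown in 96-well plates and exposed to compound for 48 hours at five concentrations. Here, GI50 denotes the concentration required for 50% inhibition of growth.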 Calls of active or inactive are those of the source. Cut-off read from the data, not from the text of the source: active = GI50 up to about 1.1 µM and inactive = higher.

Key:
Test in all cases: growth of human tumour cells (NCI), 48 h
786-0 = tested on: 786-0
A498 = tested on: A498
A549 = tested on: A549
ACHN = tested on: ACHN
CCRF-CEM = tested on: CCRF-CEM
COLO 205 = tested on: COLO 205
DU-145 = tested on: DU-145
EKVX = tested on: EKVX
HCC 2998 = tested on: HCC 2998
HCT-116 = tested on: HCT-116
HCT-15 = tested on: HCT-15
HL-60 = tested on: HL-60
HOP-62 = tested on: HOP-62
HOP-92 = tested on: HOP-92
HT-29 = tested on: HT-29
Hs-578T = tested on: Hs-578T
IGROV-1 = tested on: IGROV-1
K562 = tested on: K562
KM12 = tested on: KM12
LOX IMVI = tested on: LOX IMVI
M14 = tested on: M14
MCF7 = tested on: MCF7
MDA-MB-231 = tested on: MDA-MB-231
MDA-MB-435 = tested on: MDA-MB-435
MDA-N = tested on: MDA-N
MOLT-4 = tested on: MOLT-4
Malme-3M = tested on: Malme-3M
NCI-H226 = tested on: NCI-H226
NCI-H23 = tested on: NCI-H23
NCI-H460 = tested on: NCI-H460
NCI-H522 = tested on: NCI-H522
NCI/ADR-RES = tested on: NCI/ADR-RES
OVCAR-3 = tested on: OVCAR-3
OVCAR-4 = tested on: OVCAR-4
OVCAR-5 = tested on: OVCAR-5
OVCAR-8 = tested on: OVCAR-8
PC-3 = tested on: PC-3
RPMI-8226 = tested on: RPMI-8226
RXF 393 = tested on: RXF 393
SF-268 = tested on: SF-268
SF-295 = tested on: SF-295
SF-539 = tested on: SF-539
SK-MEL-28 = tested on: SK-MEL-28
SK-MEL-2 = tested on: SK-MEL-2
SK-MEL-5 = tested on: SK-MEL-5
SK-OV-3 = tested on: SK-OV-3
SN12C = tested on: SN12C
SNB-19 = tested on: SNB-19
SNB-75 = tested on: SNB-75
SR = tested on: SR
SW-620 = tested on: SW-620
T47D = tested on: T47D
TK-10 = tested on: TK-10
U-251 = tested on: U-251
UACC-257 = tested on: UACC-257
UACC-62 = tested on: UACC-62
UO-31 = tested on: UO-31
BT-549 = tested on: BT-549
CAKI-1 = tested on: CAKI-1

SMILES: C/C(=N/NC(=S)N1CCCCCC1)c1cccc(/C(C)=N\NC(=S)N2CCCCCC2)n1
- GI50 (786-0): 1.3 µM (inactive)
- GI50 (A498): 1.49 µM (inactive)
- GI50 (A549): 2.07 µM (inactive)
- GI50 (ACHN): 1.48 µM (inactive)
- GI50 (CCRF-CEM): 2.67 µM (inactive)
- GI50 (COLO 205): 1.47 µM (inactive)
- GI50 (DU-145): 2.29 µM (inactive)
- GI50 (EKVX): 3.13 µM (inactive)
- GI50 (HCC 2998): 2.27 µM (inactive)
- GI50 (HCT-116): 1.66 µM (inactive)
- GI50 (HCT-15): 2.09 µM
- GI50 (HL-60): 1.91 µM (inactive)
- GI50 (HOP-62): 1.89 µM (inactive)
- GI50 (HOP-92): 1.7 µM (inactive)
- GI50 (HT-29): 2.16 µM (inactive)
- GI50 (Hs-578T): 5.2 µM (inactive)
- GI50 (IGROV-1): 1.49 µM (inactive)
- GI50 (K562): 2.45 µM (inactive)
- GI50 (KM12): 1.63 µM (inactive)
- GI50 (LOX IMVI): 1.72 µM (inactive)
- GI50 (M14): 1.71 µM (inactive)
- GI50 (MCF7): 1.57 µM (inactive)
- GI50 (MDA-MB-231): 1.7 µM (inactive)
- GI50 (MDA-MB-435): 1.84 µM (inactive)
- GI50 (MDA-N): 2.23 µM (inactive)
- GI50 (MOLT-4): 2.43 µM (inactive)
- GI50 (Malme-3M): 0.938 µM (active)
- GI50 (NCI-H226): 1.75 µM (inactive)
- GI50 (NCI-H23): 2.31 µM (inactive)
- GI50 (NCI-H460): 2.55 µM (inactive)
- GI50 (NCI-H522): 2.62 µM (inactive)
- GI50 (NCI/ADR-RES): 1.69 µM (inactive)
- GI50 (OVCAR-3): 1.01 µM (active)
- GI50 (OVCAR-4): 1.01 µM (active)
- GI50 (OVCAR-5): 2.24 µM (inactive)
- GI50 (OVCAR-8): 1.55 µM (inactive)
- GI50 (PC-3): 1.64 µM (inactive)
- GI50 (RPMI-8226): 1.91 µM (inactive)
- GI50 (RXF 393): 1.6 µM (inactive)
- GI50 (SF-268): 2.51 µM (inactive)
- GI50 (SF-295): 1.89 µM (inactive)
- GI50 (SF-539): 1.56 µM (inactive)
- GI50 (SK-MEL-28): 2.3 µM (inactive)
- GI50 (SK-MEL-2): 1.67 µM (inactive)
- GI50 (SK-MEL-5): 1.42 µM (inactive)
- GI50 (SK-OV-3): 2.43 µM (inactive)
- GI50 (SN12C): 2.09 µM (inactive)
- GI50 (SNB-19): 3.27 µM (inactive)
- GI50 (SNB-75): 1.95 µM (inactive)
- GI50 (SR): 2.38 µM (inactive)
- GI50 (SW-620): 1.11 µM (active)
- GI50 (T47D): 2.31 µM (inactive)
- GI50 (TK-10): 1.77 µM (inactive)
- GI50 (U-251): 2.32 µM (inactive)
- GI50 (UACC-257): 1.58 µM (inactive)
- GI50 (UACC-62): 2.38 µM (inactive)
- GI50 (UO-31): 1.37 µM (inactive)

SMILES: CCC(=O)C(C(C)/C=C/CCSc1ccccc1)C(O)CCCCCC(=O)OC (configuration not stated)
- GI50 (786-0): > 100 µM (inactive)
- GI50 (A549): 91.6 µM (inactive)
- GI50 (ACHN): > 100 µM (inactive)
- GI50 (BT-549): > 100 µM (inactive)
- GI50 (CAKI-1): 67.5 µM (inactive)
- GI50 (CCRF-CEM): 38.6 µM (inactive)
- GI50 (COLO 205): > 100 µM (inactive)
- GI50 (DU-145): > 100 µM (inactive)
- GI50 (EKVX): > 100 µM (inactive)
- GI50 (HCC 2998): > 100 µM (inactive)
- GI50 (HCT-116): > 100 µM (inactive)
- GI50 (HCT-15): 88.7 µM
- GI50 (HOP-62): > 100 µM (inactive)
- GI50 (HOP-92): 13.7 µM (inactive)
- GI50 (HT-29): > 100 µM (inactive)
- GI50 (IGROV-1): > 100 µM (inactive)
- GI50 (K562): 46.3 µM (inactive)
- GI50 (KM12): 40.6 µM (inactive)
- GI50 (LOX IMVI): 81.3 µM (inactive)
- GI50 (M14): > 100 µM (inactive)
- GI50 (MCF7): 66.4 µM (inactive)
- GI50 (MDA-MB-231): > 100 µM (inactive)
- GI50 (MDA-MB-435): > 100 µM (inactive)
- GI50 (MDA-N): > 100 µM (inactive)
- GI50 (MOLT-4): 27.1 µM (inactive)
- GI50 (Malme-3M): > 100 µM (inactive)
- GI50 (NCI-H226): > 100 µM (inactive)
- GI50 (NCI-H23): 77.3 µM (inactive)
- GI50 (NCI-H460): > 100 µM (inactive)
- GI50 (NCI-H522): 89.3 µM (inactive)
- GI50 (NCI/ADR-RES): 99.5 µM (inactive)
- GI50 (OVCAR-3): > 100 µM (inactive)
- GI50 (OVCAR-4): > 100 µM (inactive)
- GI50 (OVCAR-5): > 100 µM (inactive)
- GI50 (OVCAR-8): > 100 µM (inactive)
- GI50 (PC-3): 84.1 µM (inactive)
- GI50 (RPMI-8226): > 100 µM (inactive)
- GI50 (RXF 393): > 100 µM (inactive)
- GI50 (SF-268): > 100 µM (inactive)
- GI50 (SF-295): > 100 µM (inactive)
- GI50 (SF-539): > 100 µM (inactive)
- GI50 (SK-MEL-28): > 100 µM (inactive)
- GI50 (SK-MEL-2): > 100 µM (inactive)
- GI50 (SK-MEL-5): 36.8 µM (inactive)
- GI50 (SK-OV-3): > 100 µM (inactive)
- GI50 (SN12C): > 100 µM (inactive)
- GI50 (SNB-19): > 100 µM (inactive)
- GI50 (SNB-75): > 100 µM (inactive)
- GI50 (SR): 32.9 µM (inactive)
- GI50 (SW-620): > 100 µM (inactive)
- GI50 (TK-10): > 100 µM (inactive)
- GI50 (U-251): 77.8 µM (inactive)
- GI50 (UACC-257): 58.9 µM (inactive)
- GI50 (UACC-62): 71.9 µM (inactive)
- GI50 (UO-31): > 100 µM (inactive)
